5 compounds from patent US20180360707A1, “COMPOSITION AND METHOD FOR INCREASE OF SURVIVAL AND STABILIZATION OF PROBIOTIC BACTERIA (PB) IN DETERGENT BASED COMPOSITIONS OF PERSONAL HYGIENE AND DOMESTIC PRODUCTS” (UAB "PROBIOSANUS", priority 2015, published 2018) can be followed below.

In the assay the test system is Bacillus coagulans DSM 2311. Nature of the assay: Analysis of encapsulated and non-capsulated bacteria viability (CFU survival) in detergent solution, cosmetic compound solution or final detergent based product. The class given is cell-based. How it is done: For all experimental trails probiotic strain of Bacillus coagulans DSM 2311 was used which was obtained from DSMZ. Bacterial cell suspension was prepared by cultivation of B. coagulans cells in 100 mL of liquid nutrient broth medium (Oxoid) in 1000 mL Erlenmeyer flask, for 24 hours at 37° C. while shaking at 180 rmp. Prior to encapsulation the cells were collected by centrifugation at 6000 rpm using Rotofix 32 A Hettich, then washed twice and re-suspended in sterile 0.9% NaCl solution to obtain cell concentration of 10^11 per mL.
1 g of ˜10^10 bacteria-containing lyophilized and rehydrated or fresh microcapsules was added to the fixed volume (100 mL) of either: detergent solution, cosmetic compound containing solution or final formulation detergent based product, and incubated at 37° C. temperature. The samples were harvested at certain timepoints to evaluate bacterial survival. After sample harvest the bacterial capsules were washed twice with sterile water and added to a fixed volume of sterile 2% sodium citrate solution for liberation of encapsulated bacteria. The cell suspension was diluted from 10^1 to 10^5 fold and 100 μL of solution was plated on Petri dishes filled with Nutrient Broth solid medium. The survival rates [%] of capsulated and non-capsulated bacteria was estimated by comparing CFU averages at each sample point, from 3 replicas. See formulas:
[formula] • N—estimated CFU; • CFU—sum of calculated colonies from each evaluated Petri plates • Vp—plated volume • Vfd—final dilution volume • D—dilution fold • Survival of bacteria [%]=N(1+n)/N1*100 • N1—bacterial CFU's from first timepoint sample • N(1+n)—bacterial CFU's from following timepoint sample
1 g of 10^10 bacteria-containing rehydrated or fresh microcapsules was added to the fixed volume (100 mL) of detergent solution and incubated for 120 hours at 37° C. temperature. A parallel experiment was performed with non-capsulated cells (control group). After the sample harvest the bacterial capsules were washed twice with sterile water and added to the fixed volume of sterile 2% sodium citrate solution for liberation of encapsulated bacteria. The cell suspension was diluted 10^1-10^5 fold and 100 μL plated on replicates of Nutrient Broth solid medium. The survival rates [%] of capsulated and non-capsulated bacteria were estimated as described in the section—Analysis of encapsulated bacteria viability in detergent based solution, by comparing CFU averages at each sample time point from 3 replicas.
1 g of 10^10 bacteria containing lyophilized-rehydrated microcapsules was added to the fixed volume (100 mL) of solutions of: Grapefruit seed extract d-limonene, or Azadirachta indica extract and incubated for 120 hours at 37° C. temperature. A parallel experiment was performed with non-capsulated cells. After sample harvest the bacterial capsules were washed twice with sterile water and added to the fixed volume of sterile 2% sodium citrate solution for liberation of encapsulated bacteria. The cell suspension was diluted 10^1-10^5 fold and 100 μL of solution was plated on replicates of Nutrient Broth solid medium. The survival rates [%] of capsulated and non-capsulated bacteria were estimated as described in the section—Analysis of encapsulated bacteria viability in detergent based solution, by comparing CFU averages at each sample point, from 3 replicas. […]

In turn, `CCCCCCCCCCCCOS(=O)(=O)[O-].[Na+]` [SLS, sodium lauryl sulphate] registered a non-capsulated bacteria inactivated (6.7% sodium lauryl sulphate (SLS) solution, 37° C.) of 80%.

With `C=C(C)[C@H]1CC=C(C)CC1` [terpenes, d-limonene], for the setting “0.7% terpene d-limonene solution, in 2 hours”, the “non-capsulated B. Coagulans bacteria inactivated” value is on record as 100%.

For cocamide diethanolamine, for the setting “3% cocamide diethanolamine solution, 37° C.”, the non-capsulated bacteria inactivated was 75%.

As to cocoamide propyl betaine [CAPB], where the note is “cocoamide propyl betaine (CAPB) 6.7% solution, after 0.5 h, 37° C.”, the “non-capsulated bacteria (starting titers) inactivated” value worked out at 97%.

Under “7% cocoglycozide solution, 37° C.”, cocoglycozide registered a non-capsulated bacteria inactivated of 75%.
